US7563882B2, “Polynucleotides encoding antibodies that bind to the C35 polypeptide” (University of Rochester, priority 2002, dated 2009)

T1: hC35 protein (Homo sapiens, UniProt Q9BRT3)
T1 construct: made in house; host or cells: E. coli
T1 sequence (Q9BRT3 1-115): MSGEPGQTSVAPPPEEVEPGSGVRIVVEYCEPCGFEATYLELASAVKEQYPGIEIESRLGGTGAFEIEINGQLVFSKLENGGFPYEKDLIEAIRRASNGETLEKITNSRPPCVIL

B1: 3E10: C35-specific monoclonal antibody; Kappa and IgG1 V-genes SEQ ID NOs:150 and 151 (antibody, V domains shown)
VH: MMVLSLLYLLTALPGILSEVQLQESGPSLVKPSQTLSLTCSVTGDSITSGYWNWIRKFPGNKLEYVGYISYSGGTYYNPSLKSRISITRDTSKNHYYLQLNSVTTEDTATYYCARGAYYGGAFFPYFDVWGAGTTVTVSS
VL: MRFQVQVLGLLLLWISGAHCDVQITQSPSFLAASPGETITINCRASKYISKHLVWYQEKPGETKKLLIYSGSTLQSGLPSRFSGSGSGTDFTLTISSLEPEDFAMYYCQQHNEYPLTFGAGTKLELK
modifications: cDNA of 3E10 V-genes (IgG1); cDNA of 3E10 V-genes (Kappa)

Assays:
[1] = system: 21NT.A2; assay: 51Cr release, CD8+ cells stimulated with K104-V113 peptides (Example 17); assay type: cell-based, human; settings: target 21NT.A2
[2] = system: PCl-13; assay: as above; assay type: cell-based, human; settings: target PCl-13, CD8+ cells of donor stimulated with peptide pulsed DCs; for Raw Chromium Values: Table 13; for Percentage of Target Cells Lysed: Table 14
[3] = system: 21NT; assay: as above; assay type: cell-based, human; settings: target 21NT, CD8+ cells of donor stimulated with peptide pulsed DCs; for Raw Chromium Values: Table 13; for Percentage of Target Cells Lysed: Table 14
[4] = system: H16.A2; assay: as above; assay type: cell-based, human; settings: for Raw Chromium Values: target H16.A2
[5] = system: Mel 1359; assay: as above; assay type: cell-based, human; settings: target Mel 1359, effector to target 30:1, CD8+ cells 12 days in IL-2 after fourth stimulation; for Raw Chromium Values: Table 15 (repeat); for Percentage of Target Cells Lysed: Table 16 (repeat)
[6] = system: Mel F002; assay: as above; assay type: cell-based, human; settings: for Raw Chromium Values: Table 15 (repeat), target Mel F002, effector to target 30:1, CD8+ cells 12 days in IL-2 after fourth stimulation; for Percentage of Target Cells Lysed: Table 16 (repeat), effector to target 30:1, CD8+ cells 12 days in IL-2 after fourth stimulation
[7] = system: K562; assay: as above; assay type: cell-based, human; settings: for Raw Chromium Values: target K562
[8] = system: PCl-13 K104-V113-Ser; assay: as above; assay type: cell-based, human; settings: CD8+ cells of donor stimulated with peptide pulsed DCs; for Raw Chromium Values: Table 13, target PCl-13 K104-V113-Ser; for Percentage of Target Cells Lysed: Table 14, target Pcl-13 K104-V113-Ser
[9] = system: Mel 1700; assay: as above; assay type: cell-based, human; settings: target Mel 1700, effector to target 30:1, CD8+ cells 12 days in IL-2 after fourth stimulation; for Raw Chromium Values: Table 15 (repeat); for Percentage of Target Cells Lysed: Table 16 (repeat)
[10] = system: 21NT.A2-Ser; assay: as above; assay type: cell-based, human; settings: target 21NT.A2-Ser, effector to target 30:1, CD8+ cells 12 days in IL-2 after fourth stimulation; for Raw Chromium Values: Table 15 (repeat); for Percentage of Target Cells Lysed: Table 16 (repeat)
[11] = system: Mel 501; assay: as above; assay type: cell-based, human; settings: target Mel 501, effector to target 30:1, CD8+ cells 12 days in IL-2 after fourth stimulation; for Raw Chromium Values: Table 15 (repeat); for Percentage of Target Cells Lysed: Table 16 (repeat)
[12] = system: B/C.N cells; assay: 51Cr release (CML), sensitization of B/C.N to lysis by tumor specific CTL; assay type: cell-based, mouse; settings: for sensitization of B/C.N cells to lysis by tumor-specific CTL: 4 hours; for peptide concentration to sensitize targets to lysis by CTL: B/C.N targets
[13] = target: T1, hC35 protein; assay: Western Blot immunodetection with hybridoma supernatants; assay type: binding; settings: 100 ng purified recombinant C35 protein or control β-galactosidase per lane
Method: Western Blot Immunodetection was performed with supernatants from selected hybridoma clones. […] In these experiments, 100 ng of purified recombinant C35 protein or control β-galactosidase protein was loaded in each lane of an 18% SDS polyacrylamide gel. Gels were transferred to PVDF membrane, as is well known to those practiced in the art. Membranes were blocked with Tris buffered saline (TBS), including Tween-20 and 5% non-fat dry milk. Each blot was incubated with various dilutions of hybridoma supernatants as the primary antibody, followed by incubation with a secondary antibody, goat anti-mouse IgG conjugated to HRP, and detected with the chemiluminescent substrate, ECL. Similar results were obtained with 11B10 (not shown).

[14] = Table 13, CD8+ cells of donor stimulated with peptide pulsed DCs
[15] = Table 14, CD8+ cells of donor stimulated with peptide pulsed DCs
[16] = Table 15 (repeat), effector to target 30:1, CD8+ cells 12 days in IL-2 after fourth stimulation
[17] = Table 16 (repeat), effector to target 30:1, CD8+ cells 12 days in IL-2 after fourth stimulation

Molecule | Raw Chromium Values [1, 14] | Percentage of Target Cells Lysed [1, 15] | Raw Chromium Values [1, 16] | Percentage of Target Cells Lysed [1, 17] | Raw Chromium Values [2] | Percentage of Target Cells Lysed [2] | Raw Chromium Values [3] | Percentage of Target Cells Lysed [3] | Raw Chromium Values [4, 14] | Percentage of Target Cells Lysed [4, 15] | Raw Chromium Values [4, 16] | Percentage of Target Cells Lysed [4, 17] | Raw Chromium Values [5] | Percentage of Target Cells Lysed [5] | Raw Chromium Values [6] | Percentage of Target Cells Lysed [6] | Raw Chromium Values [7, 14] | Percentage of Target Cells Lysed [7, 15] | Raw Chromium Values [7, 16] | Percentage of Target Cells Lysed [7, 17] | other results
K104-V113-cys-cys: K104-V113 peptide fragment of C35 containing a cysteinylated cysteine at amino acid position 112 | 1329 | 20.1% | 2337 | 19.1% | 486 | −1.7% | 171 | −0.1% | 440 | 0.2% | 1024 | 5.8% | 2299 | 2.5% | 1713 | 11.2% | 287 | 0.9% | 1713 | 16.2% | Raw Chromium Values [8]: 1772; Percentage of Target Cells Lysed [8]: 35.3%; Raw Chromium Values [9]: 1857; Percentage of Target Cells Lysed [9]: 7.2%; Raw Chromium Values [10]: 4474; Percentage of Target Cells Lysed [10]: 51.9%; Raw Chromium Values [11]: 4474; Percentage of Target Cells Lysed [11]: 21.2%
KITNSRPPAV (synthetic analog of human C35 epitope) [K104-V113-Ala] | 763 | 7.3% | 1365 | 6.4% | 468 | −2.2% | 155 | −0.7% | 479 | 0.9% | 829 | 2.0% | 3050 | 9.9% | 815 | 7.6% | 246 | −0.9% | 815 | 2.9% | Raw Chromium Values [8]: 746; Percentage of Target Cells Lysed [8]: 6.0%; Raw Chromium Values [9]: 1543; Percentage of Target Cells Lysed [9]: 2.4%; Raw Chromium Values [10]: 2423; Percentage of Target Cells Lysed [10]: 22.5%; Raw Chromium Values [11]: 2423; Percentage of Target Cells Lysed [11]: 11.1%
KITNSRPPCV [K104-V113] | 1429 | 22.4% | 2753 | 24.6% | 804 | 7.6% | 137 | −1.5% | 483 | 0.9% | 948 | 4.3% | 2758 | 7.0% | 1156 | 15.7% | 311 | 2.0% | 1156 | 8.0% | Raw Chromium Values [8]: 1403; Percentage of Target Cells Lysed [8]: 24.8%; Raw Chromium Values [9]: 1964; Percentage of Target Cells Lysed [9]: 8.9%; Raw Chromium Values [10]: 3729; Percentage of Target Cells Lysed [10]: 41.5%; Raw Chromium Values [11]: 3729; Percentage of Target Cells Lysed [11]: 36.0%
KITNSRPPSV (synthetic analog of human C35 epitope) [K104-V113-Ser] | 3228 | 63.2% | 4957 | 53.4% | 581 | 1.1% | 185 | 0.5% | 584 | 2.6% | 1018 | 5.6% | 2357 | 3.0% | 974 | 15.1% | 323 | 2.5% | 974 | 5.3% | Raw Chromium Values [8]: 2588; Percentage of Target Cells Lysed [8]: 58.7%; Raw Chromium Values [9]: 2951; Percentage of Target Cells Lysed [9]: 24.1%; Raw Chromium Values [10]: 4762; Percentage of Target Cells Lysed [10]: 56.0%; Raw Chromium Values [11]: 4762; Percentage of Target Cells Lysed [11]: 45.3%
L345-54 (I54): peptide of ribosomal protein L3, positions 45-54 with Ile 54 (AFLGYKAGMI) | – | – | – | – | – | – | – | – | – | – | – | – | – | – | – | – | – | – | – | – | sensitization of B/C.N cells to lysis by tumor-specific CTL [12]: did not
L348-56 (I54): peptide of ribosomal protein L3, positions 48-56 with Ile 54; target epitope of tumor-specific CTL (GYKAGMIHI) | – | – | – | – | – | – | – | – | – | – | – | – | – | – | – | – | – | – | – | – | sensitization of B/C.N cells to lysis by tumor-specific CTL [12]: sensitized B/C.N to lysis; peptide concentration to sensitize targets to lysis by CTL [12]: ≤ 0.01 µM
L348-56 (T54): wild type ribosomal protein L3 peptide 48-56 with Thr 54 (GYKAGMTHI) [reference compound] | – | – | – | – | – | – | – | – | – | – | – | – | – | – | – | – | – | – | – | – | sensitization of B/C.N cells to lysis by tumor-specific CTL [12]: did not; peptide concentration to sensitize targets to lysis by CTL [12]: > 100 µM
B1 | – | – | – | – | – | – | – | – | – | – | – | – | – | – | – | – | – | – | – | – | reactivity with hC35 protein in Western Blot [13]: reacted specifically
